ChEMBL document CHEMBL5390199, “Discovery of novel N-aryl-2-trifluoromethyl-quinazoline-4-amine derivatives as the inhibitors of tubulin polymerization in leukemia cells” (Eur J Med Chem, 2023)
Activity calls are given as the source filed them. No cut-off for these calls is given here.

Tests used:
HeLa = test: Cytotoxicity against human HeLa cells assessed as inhibition of cell growth incubated for 48 hrs by MTT assay; format: functional, cell-based
K562 [1] = test: Cytotoxicity against human K562 cells assessed as inhibition of cell growth incubated for 48 hrs by MTT assay; format: functional, cell-based; conditions: K562, 48 h
HEL [2] = test: Cytotoxicity against human HEL cells assessed as inhibition of cell growth incubated for 48 hrs by MTT assay; format: functional, cell-based
LNCaP = test: Cytotoxicity against human LNCaP cells assessed as inhibition of cell growth incubated for 48 hrs by MTT assay; format: functional, cell-based
K562 [3] = test: Induction of morphological changes in human K562 cells by fluorescence microscopic analysis; format: functional, cell-based
HEL [4] = test: Induction of morphological changes in human HEL cells by fluorescence microscopic analysis; format: functional, cell-based
HEL [5] = test: Induction of apoptosis in human HEL cells at 0.5 uM incubated for 48 hrs by annexin V-FITC/propidium iodide staining based flow cytometry relative to control; format: functional
HEL [6] = test: Induction of cell cycle arrest in human HEL cells assessed as reduction in accumulation of cells at G0/G1 phase incubated for 12 hrs by flow cytometry; format: functional, cell-based
HEL [7] = test: Induction of cell cycle arrest in human HEL cells assessed as reduction in accumulation of cells at S phase incubated for 12 hrs by flow cytometry; format: functional, cell-based
HEL [8] = test: Induction of cell cycle arrest in human HEL cells assessed as increase in accumulation of cells at G2/M phase incubated for 12 hrs by flow cytometry; format: functional, cell-based
[9] = Selectivity index, ratio of IC50 for cytotoxicity against human L02 cells to IC50 for cytotoxicity against human HEL cells
HUVEC = test: Antiangiogenic activity against human HUVEC cells assessed as inhibition of cell migration at 0.5 uM measured after 24 hrs by scratch wound healing assay; format: functional, cell-based
K562 [10] = test: Induction of apoptosis in human K562 cells at 0.5 uM incubated for 48 hrs by annexin V-FITC/propidium iodide staining based flow cytometry relative to control; format: functional
K562 [11] = test: Induction of cell cycle arrest in human K562 cells assessed as reduction in accumulation of cells at G0/G1 phase incubated for 12 hrs by flow cytometry; format: functional, cell-based
K562 [12] = test: Induction of cell cycle arrest in human K562 cells assessed as reduction in accumulation of cells at S phase incubated for 12 hrs by flow cytometry; format: functional, cell-based
K562 [13] = test: Induction of cell cycle arrest in human K562 cells assessed as increase in accumulation of cells at G2/M phase incubated for 12 hrs by flow cytometry; format: functional, cell-based
[14] = Cytotoxicity against human L02 cells assessed as inhibition of cell growth incubated for 48 hrs by MTT assay; format: toxicity, cell-based
[15] = Selectivity index, ratio of IC50 for cytotoxicity against human L02 cells to IC50 for cytotoxicity against human K562 cells; format: toxicity, cell-based; conditions: L02 cells and K562 cells, read-out: Ratio IC50
[16] = target: Tubulin beta (Homo sapiens) (UniProt P68371+Q9H4B7+Q13509+P04350+Q3ZCM7+P07437+Q13885+Q9BVA1+Q9BUF5+A6NNZ2); test: Binding affinity to beta-tubulin colchicine binding site in human K562 cells assessed as inhibition of EBI-beta-tubulin adduct band formation preincubated for 2 hrs followed by EBI addition and measured after 1.5 hrs by EBI competition based Western blot analysis; format: cell-based; conditions: dose 0.2-25 µM, time 3.5 hrs
Tubulin (Homo sapiens) [17] = target: T1, Tubulin (Homo sapiens) (UniProt P68371+Q9H4B7+P0DPH7+P68366+Q13509+Q71U36+P04350+Q3ZCM7+P07437+P68363+Q9BQE3+Q6PEY2+Q13885+Q9BVA1+Q9BUF5); test: Induction of microtubule depolymerization in human K562 cells at 500 nM incubated for 24 hrs by confocal microscopic analysis; format: cell-based
Tubulin (Homo sapiens) [18] = target: T1, Tubulin (Homo sapiens); test: Inhibition of microtubule polymerization in human K562 cells at 0.5 uM measured for 60 mins; format: cell-based
Tubulin (Homo sapiens) [19] = target: T1, Tubulin (Homo sapiens); test: Induction of microtubule depolymerization in human K562 cells assessed as aggregation of microtubule fibers at 100 nM incubated for 24 hrs by confocal microscopic analysis; format: cell-based
[20] = Homo sapiens, HeLa, 48 h, read-out: IC50

SMILES	IC50 (HeLa; [20]) [nM]	IC50 (K562 [1]) [nM]	IC50 (HEL [2]) [nM]	IC50 (LNCaP) [nM]	Activity (K562 [3])	Activity (HEL [4])	Activity (HUVEC)	other results
COc1ccc(N(C)c2nc(C(F)(F)F)nc3ccc(F)cc23)cc1NC(=O)CCl	37	1390	595	256				
C=CC(=O)Nc1cc(N(C)c2nc(C(F)(F)F)nc3ccc(F)cc23)ccc1OC	165	986	422	402				
COc1ccc(N(C)c2nc(C(F)(F)F)nc3cc(OC)c(O)cc23)cc1		2520	4520	1630				IC50 (HeLa; hela): Not Active
CN(c1ccc2c(ccn2C)c1)c1nc(C(F)(F)F)nc2ccc(Cl)cc12	335	684	89	138	Active	Active	Active	Activity (HEL [5]): 28.5%; Activity (HEL [6]): Active; Activity (HEL [7]): Active; Activity (HEL [8]): Active; Ratio IC50 [9]: 3.45
CCN(CC)c1cc(N(C)c2nc(C(F)(F)F)nc3ccc(F)cc23)ccc1OC	8390	21600	11700	13300				
Cc1ccc2nc(C(F)(F)F)nc(N(C)c3ccc(C(F)(F)F)cc3)c2c1	2870	1930	1400	2660				
COc1ccc(N(C)c2nc(C(F)(F)F)nc3ccc(F)cc23)cc1	110	265	99	377	Active	Active	Active	Activity (K562 [10]): 19.9%; Activity (HEL [5]): 32.3%; Activity (K562 [11]): Active; Activity (K562 [12]): Active; Activity (K562 [13]): Active; Activity (HEL [6]): Active; Activity (HEL [7]): Active; Activity (HEL [8]): Active; IC50 at 48 h [14]: 1950 nM; selectivity ratio [15]: 7.36; Ratio IC50 [9]: 19.7; Activity [16]: Dose-Dependent Effect; Activity (Tubulin (Homo sapiens) [17]): Active; Activity (Tubulin (Homo sapiens) [18]): Active
COc1ccc(N(C)c2nc(C(F)(F)F)nc3cc(OC)c(OCCCN4CCCC4)cc23)cc1	445	2410	1570	172				
CC(=O)O[C@H]1C(=O)[C@@]2(C)[C@H]([C@H](OC(=O)c3ccccc3)[C@]3(O)C[C@H](OC(=O)[C@H](O)[C@@H](NC(=O)c4ccccc4)c4ccccc4)C(C)=C1C3(C)C)[C@]1(OC(C)=O)CO[C@@H]1C[C@@H]2O [PACLITAXEL]	6	874	200	58				Activity (Tubulin (Homo sapiens) [19]): Active
COc1ccc(N(C)c2nc(C(F)(F)F)nc3ccc(Cl)cc23)c([N+](=O)[O-])c1	613	2250	1320	2590				
COc1ccc(N(C)c2nc(C(F)(F)F)nc3ccc(C)cc23)cc1	141	3280	34	237	Active	Active	Active	Activity (HEL [5]): 29.2%; Activity (HEL [6]): Active; Activity (HEL [7]): Active; Activity (HEL [8]): Active; Ratio IC50 [9]: 3.38
COc1cc2c(c(OC)c1OC)-c1ccc(OC)c(=O)cc1[C@@H](NC(C)=O)CC2 [COLCHICINE]	15	975	156	245				
CCNc1cc(N(C)c2nc(C(F)(F)F)nc3ccc(F)cc23)ccc1OC	201	2420	6960	2560				
CNc1cc(N(C)c2nc(C(F)(F)F)nc3ccc(F)cc23)ccc1OC	88	2250	273	668				
CN(c1ccc2c(ccn2C)c1)c1nc(C(F)(F)F)nc2ccc(F)cc12	22	450	363	96	Active	Active	Active	Activity (K562 [10]): 20.3%; Activity (K562 [11]): Active; Activity (K562 [12]): Active; Activity (K562 [13]): Active; IC50 at 48 h [14]: 2830 nM; selectivity ratio [15]: 6.29
COc1ccc(N(C)c2nc(C(F)(F)F)nc3ccc(F)cc23)cc1NC(C)=O	46	1590	1120	810				
COc1ccc(N(C)c2nc(C(F)(F)F)nc3ccc(Cl)cc23)cc1	332	294	294	143	Active	Active	Active	Activity (K562 [10]): 19.7%; Activity (HEL [5]): 31%; Activity (K562 [11]): Active; Activity (K562 [12]): Active; Activity (K562 [13]): Active; Activity (HEL [6]): Active; Activity (HEL [7]): Active; Activity (HEL [8]): Active; IC50 at 48 h [14]: 323 nM; selectivity ratio [15]: 1.1; Ratio IC50 [9]: 8.28
COc1ccc(N(C)c2nc(C(F)(F)F)nc3ccc(Cl)cc23)cc1[N+](=O)[O-]	1000	177	397	589	Active	Active	Active	Activity (K562 [10]): 12.7%; Activity (K562 [11]): Active; Activity (K562 [12]): Active; Activity (K562 [13]): Active; IC50 at 48 h [14]: 570 nM; selectivity ratio [15]: 3.22
COc1cc2nc(C(F)(F)F)nc(N(C)c3ccc4c(ccn4C)c3)c2cc1O	1120	2260	468	481				
Cc1ccc2nc(C(F)(F)F)nc(N(C)c3ccc4c(ccn4C)c3)c2c1	1300	1210	992	945				
